Test results taken from US9301923B2, “Lipids, lipid compositions, and methods of using them” (NOVARTIS AG, priority 2009, dated 2016).
Where two headings read alike, the source gives them in different places.

Tests used:
Factor VII = Factor VII activity assay, in vivo liver delivery of FVII siRNA LNP; set-up: species or system mouse; conditions: for FVII inhib %: ~48 h; for in vivo Factor VII inhibition: formulation containing the cationic lipid, RNAi construct specific to Factor VII, liver
How it was run: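 Female CD-1 mice (~25 g) given a single i.v. tail-vein dose of FVII siRNA in LNPs (cationic, stealth, neutral lipids), dosed as mg siRNA/kg. Plasma collected ~48 h post-injection; FVII activity read against a standard curve from pooled vehicle-control plasma.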

[1] = system: PLK-1 mRNA in Hep3B tumors; assay: Hep3B tumor study, PLK-1 mRNA KD in tumor tissue; type: in vivo, human; conditions: Hep3B tumor, mouse, i.v., LNP composition as in the source
Source text: Formulated siRNAs are made up of double stranded siRNA sequences specific to a target mRNA sequence, and are in the form of lipid nucleotid particles (LNPs) containing cationic lipids, stealth lipids and neutral lipids, as provided in the Examples below. The siRNA construct for use in targeting the liver is specific to Factor VII. The siRNA construct for use in targeting tumors is specific to PLK1-424, which is published by Judge et al., See, J Clin Invest. 2009 March; 119(3):661-73; doi: 10.1172/JCI37515). • 1. FVII siRNA duplex sequence
Hep3B tumors are established in female nude mice by sc injection of 7×10^6 cells in 100 ul PBS into the left flank. Mice are randomized into treatment groups 10-14 days after seeding as tumors reached an average size of 100 mm^3. siRNA formulated LNP formulations are administered at various dose levels intravenously via the lateral tail vein calculated on a mg siRNAs/kg basis according to individual animal weights (10 ml/kg injection volume). Mice are euthanized by CO2 inhalation at various time points and the tumors are harvested for mRNA quantitation. Lipids with a wide range of pKa (5.3-6.6) are used in the LNP formulations. Tumors are measured in 2 dimensions (width×length) to assess tumor growth using digital calipers. Tumor volume is calculated using the equation [a×b×b/2], where a equals the largest diameter and b equals the smallest diameter.
About 30-50 mg tumor tissue is homogenized in tissue lysis buffer in a Qiagen homogenizer followed by centrifugation to clarify lysates. Total RNA is isolated using RNeasy isolation kit (catalog number 74106) according to the manufacture's protocol. PLK-1 mRNA is analyzed by quantitative PCR and normalized to human GAPDH. Applied Biosystems human PLK-1 gene expression assay Hs00983229_m1 and human GAPDH endogenous control cat number 4326317E are used for mRNA detection.
The pKa in all tables refers to the pKa of the cationic lipid. Where multiple doses are indicated (e.g., 3×5), the first number indicates the number of doses given and the second number indicates the amount per dose in mg siRNA (biologically active agent) per kg mouse. In general the multiple doses are administered at 24 hour intervals, and tissues for mRNA quantitation are harvested 24 hours after the last dose.

[2] = Particle size and PDI by dynamic light scattering (Malvern Zetasizer); type: physicochemical
How it was run: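 Nanoparticles diluted in PBS to a count rate of about 200-400 kcts and measured by dynamic light scattering; size given as intensity-weighted average diameter, with polydispersity index from the same measurement.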

[3] = pKa of the lipid by TNS fluorescence; type: physicochemical
How it was run: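 Lipid dissolved in ethanol (2 mM stock) and measured with TNS across eight buffers of differing pH, in water at standard temperature and pressure. Normalized fluorescence intensity plotted against pH and points joined by a smooth line to derive pKa, precise to about 0.2 units.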

[4] = dose 3 mg/kg siRNA i.v., lipid/no neutral lipid/CHOL/AVANTI 880150P 50/0/46/4, N/P 3.43
[5] = LNP formulation with PLK1 siRNA, helper, neutral and stealth lipid, molar ratio and N/P as in the table
[6] = lipid/no neutral lipid/CHOL/AVANTI 880150P 50/0/46/4, N/P 3.43
[7] = dose 1 mg/kg siRNA i.v., lipid/no neutral lipid/CHOL/GM-020 NOF 60/0/36/4, N/P 3
[8] = lipid/no neutral lipid/CHOL/GM-020 NOF 60/0/36/4, N/P 3
[9] = dose 3 mg/kg siRNA i.v., lipid/DSPC/CHOL/AVANTI 880150P 50/28/18/4, N/P 3.43
[10] = lipid/DSPC/CHOL/AVANTI 880150P 50/28/18/4, N/P 3.43

SMILES	Final size (nm) [2, 5]	FVII inhib % (Factor VII; [7])	Final size (nm) [2, 8]	PDI [2, 8]	pKa ([3]; pKa)	other results
CCCCC/C=C\C/C=C\CCCCCCCCOCC(CN1CCC(C)(C)C1)OCCOCCO[C@H]1CC[C@@]2(C)C(=CC[C@H]3[C@@H]4CC[C@H]([C@H](C)CCCC(C)C)[C@@]4(C)CC[C@@H]32)C1 (stereo partly drawn) [E0026]	105.8 nm					FVII inhib % (Factor VII; [4]): 95.1%; PLK1 inhibition % ([1]; 1 × 5 mg siRNA/kg): 75%; Final size (nm) [2, 6]: 87 nm; PDI [2, 6]: 0.23
CCCCC/C=C\C/C=C\CCCCCCCCOCC(CN1CCCCC1)OCCOCCOCCOCCO[C@H]1CC[C@@]2(C)C(=CC[C@H]3[C@@H]4CC[C@H]([C@H](C)CCCC(C)C)[C@@]4(C)CC[C@@H]32)C1 (stereo partly drawn) [E0079]		33.5%	106.2 nm	0.052	6.79	
CCCCC/C=C\C/C=C\CCCCCCCCOCC(CN1CCCC1C)OCCOCCOCCO[C@H]1CC[C@@]2(C)C(=CC[C@H]3[C@@H]4CC[C@H]([C@H](C)CCCC(C)C)[C@@]4(C)CC[C@@H]32)C1 (stereo partly drawn) [E0082]		49.7%	105.1 nm	0.303	6.81	
CCCCC/C=C\C/C=C\CCCCCCCCOCC(CN1CCCC1C)OCCOCCO[C@H]1CC[C@@]2(C)C(=CC[C@H]3[C@@H]4CC[C@H]([C@H](C)CCCC(C)C)[C@@]4(C)CC[C@@H]32)C1 (stereo partly drawn) [E0083]		55.6%	113.4 nm	0.199	6.79	
CCCCC/C=C\C/C=C\CCCCCCCCOCC(CN1CCCC1C)OCCOCCOCCOCCO[C@H]1CC[C@@]2(C)C(=CC[C@H]3[C@@H]4CC[C@H]([C@H](C)CCCC(C)C)[C@@]4(C)CC[C@@H]32)C1 (stereo partly drawn) [E0084]		60.7%	112.1 nm	0.1	7.27	
CCCCC/C=C\C/C=C\CCCCCCCCOCC(CN1CCC(OC)C1)OCCO[C@H]1CC[C@@]2(C)C(=CC[C@H]3[C@@H]4CC[C@H]([C@H](C)CCCC(C)C)[C@@]4(C)CC[C@@H]32)C1 (stereo partly drawn) [E0087]		69%	119.2 nm	0.148	6.38	
CCCCC/C=C\C/C=C\CCCCCCCCOCC(CN1CCOCC1)OCCCOCCCO[C@H]1CC[C@@]2(C)C(=CC[C@H]3[C@@H]4CC[C@H]([C@H](C)CCCC(C)C)[C@@]4(C)CC[C@@H]32)C1 (stereo partly drawn) [E0093]	82.42 nm				4.85	PLK1 inhibition % ([1]; 1 × 10 mg siRNA/kg): 2%
CCCCCCCC/C=C\CCCCCCCCOCC(CN1CCCC1C)OCCCOCCCO[C@H]1CC[C@@]2(C)C(=CC[C@H]3[C@@H]4CC[C@H]([C@H](C)CCCC(C)C)[C@@]4(C)CC[C@@H]32)C1 (stereo partly drawn) [E0094]		36.3%	115.5 nm	0.076	5.91	
CCCCC/C=C\C/C=C\CCCCCCCCOCOCC(CN1CCCCC1)OCCOCCO[C@H]1CC[C@@]2(C)C(=CC[C@H]3[C@@H]4CC[C@H]([C@H](C)CCCC(C)C)[C@@]4(C)CC[C@@H]32)C1 (stereo partly drawn) [E0115]		68.8%	162.5 nm	0.098	6.41	
CCCCCCCC/C=C\CCCCCCCCOCC(CN1CC[C@@H]2CCCC[C@H]2C1)OCCOCCO[C@H]1CC[C@@]2(C)C(=CC[C@H]3[C@@H]4CC[C@H]([C@H](C)CCCC(C)C)[C@@]4(C)CC[C@@H]32)C1 (stereo partly drawn) [E0120]	87 nm				5.48	PLK1 inhibition % ([1]; 1 × 1 mg siRNA/kg): 28%
CCCCCCCC/C=C\CCCCCCCCOCC(CN1CCOCC1)OCCOC(=O)CO[C@H]1CC[C@@]2(C)C(=CCC3[C@@H]4CC[C@H]([C@H](C)CCCC(C)C)[C@@]4(C)CC[C@@H]32)C1 (stereo partly drawn) [E0128]	83.47 nm				5.01	PLK1 inhibition % ([1]; 1 × 1 mg siRNA/kg): 23%
CCCCCCCC/C=C\CCCCCCCCOCC(CN1CCCCC1)OCCOC(=O)CCCC(=O)O[C@H]1CC[C@@]2(C)C(=CC[C@H]3[C@@H]4CC[C@H]([C@H](C)CCCC(C)C)[C@@]4(C)CC[C@@H]32)C1 (stereo partly drawn) [E0151]	103.8 nm				6.06	PLK1 inhibition % ([1]; 1 × 0.1 mg siRNA/kg): 7%; PLK1 inhibition % ([1]; 1 × 1 mg siRNA/kg): 25%
CCCCCCCC/C=C\CCCCCCCCOCC(CN1CCOCC1)OCCOCCOC(=O)CCC(=O)O[C@H]1CC[C@@]2(C)C(=CC[C@H]3[C@@H]4CC[C@H]([C@H](C)CCCC(C)C)[C@@]4(C)CC[C@@H]32)C1 (stereo partly drawn) [E0152]	121.3 nm				5.38	PLK1 inhibition % ([1]; 1 × 1 mg siRNA/kg): 18%
CCCCCCCC/C=C\CCCCCCCCOCOCC(CN1CCCCC1)OCCCOC(=O)CCC(=O)O[C@H]1CC[C@@]2(C)C(=CC[C@H]3[C@@H]4CC[C@H]([C@H](C)CCCC(C)C)[C@@]4(C)CC[C@@H]32)C1 (stereo partly drawn) [E0160]	100.8 nm				6.05	PLK1 inhibition % ([1]; 1 × 1 mg siRNA/kg): 38%
CCCCC/C=C\C/C=C\CCCCCCCCOCC(CN1CCC(C)(C)CC1)OCCOCCO[C@H]1CC[C@@]2(C)C(=CCC3C2CC[C@@]2(C)C3CC[C@@H]2[C@H](C)CCCC(C)C)C1 (stereo partly drawn) [E0171]					8.5	FVII inhib % (Factor VII; [4]): 54.1%; in vivo Factor VII inhibition (Factor VII): 40.8%; Final size (nm) [2, 6]: 90 nm; PDI [2, 6]: 0.18
CCCCC/C=C\C/C=C\CCCCCCCCOCC(CN(C)C)OCCOCCO[C@H]1CC[C@@]2(C)C(=CC[C@H]3[C@@H]4CC[C@H]([C@H](C)CCCC(C)C)[C@@]4(C)CC[C@@H]32)C1 (stereo partly drawn) [E0172, reference compound]					6.7	FVII inhib % (Factor VII; [9]): 21%; FVII inhib % (Factor VII; [4]): 40.8%; Final size (nm) [2, 10]: 170 nm; PDI [2, 10]: 0.181; Final size (nm) [2, 6]: 129 nm; PDI [2, 6]: 0.184; pKa [3]: 8.5
CCCCC/C=C\C/C=C\CCCCCCCCOCC(CN(C)C)OCCCCO[C@H]1CC[C@@]2(C)C(=CCC3C2CC[C@@]2(C)C3CC[C@@H]2[C@H](C)CCCC(C)C)C1 (stereo partly drawn) [E0173, 3-Dimethylamino-2-(Cholest-5-en-3-beta-oxybutan-4-oxy) -1-(cis,cis-9,12-octadecadienoxy)propane, reference compound]					6.73	FVII inhib % (Factor VII; dose 1 mg/kg siRNA i.v., lipid/no neutral lipid/CHOL/AVANTI 880150P 50/0/46/4, N/P 3.43): 87.4%; FVII inhib % (Factor VII; [9]): 90.9%; FVII inhib % (Factor VII; [4]): 98.5%; in vivo Factor VII inhibition (Factor VII): 98.5%; Final size (nm) [2, 10]: 98 nm; PDI [2, 10]: 0.17; Final size (nm) [2, 6]: 76 nm; PDI [2, 6]: 0.16
CCCCC/C=C\C/C=C\CCCCCCCCCCC(CN(C)C)OC(=O)CCC(=O)O[C@H]1CC[C@@]2(C)C(=CCC3C2CC[C@@]2(C)C3CC[C@@H]2[C@H](C)CCCC(C)C)C1 (stereo partly drawn) [E0174, reference compound]					5.15	FVII inhib % (Factor VII; [9]): 63.2%; FVII inhib % (Factor VII; [4]): 3.5%; Final size (nm) [2, 10]: 117 nm; PDI [2, 10]: 0.23; Final size (nm) [2, 6]: 90 nm; PDI [2, 6]: 0.21
